Reference: patent US10953109B2, “Application of GPR45 gene” (FUDAN UNIVERSITY, priority 2015, dated 2021)
“Also recorded” adds a separate entry of the source.

Assays:
GPR45 = assay: RNA interference of GPR45 in primary culture cells of hypothalamuses of wild type fetal mice, RT-PCR; format: cell-based; conditions: 10 pmol siRNA per well, transfection 72 h
Experimental: […]
For detection of POMC expression, primary cell RNA was extracted to perform reverse transcription to obtain cDNA, then real-time quantitative PCR detection was performed, and experiment steps were the same as embodiment 11. […]

GPR45^PB1/PB1 mice = assay: MTII injected daily into third intraventricular of adult GPR45 homozygote obese mice; body weight and fat; format: in vivo
Experimental: (§1) MTII is an agonist of MC3R/MC4R, can simulate a function of a POMC shorn product α-MSH and plays a role of suppressing appetite and promoting energy metabolism. […] When the mutant mice and wild type mice of control groups were injected with equal amounts of normal saline, the body weight was not influenced.

wild type mice = assay: MTII injected into third intraventricular of wild type mice; body weight and fat; format: in vivo
Experimental: as §1

[1] = mutant mice, six days after administration, compared with normal saline control
[2] = wild type mice injected with MTII, six days

Substance | expression amount of GPR45 decreased (GPR45) [%] | expression amount of POMC decreased (GPR45) [%] | body weight after three days after MTII was injected (GPR45^PB1/PB1 mice; GPR45^PB1/PB1 mice, three days) | fat content (FIG. 24B) (GPR45^PB1/PB1 mice; adult male GPR45 homozygote mice) | body weight (FIG. 24A) (GPR45^PB1/PB1 mice; adult male GPR45 homozygote mice, after six days) | increase of the body weight (GPR45^PB1/PB1 mice; daily injection, adult obese mice) | obesity caused by GPR45 mutations (GPR45^PB1/PB1 mice; intraventricular injection) | body weight decreased relative to the body weight before injection (GPR45^PB1/PB1 mice; mutant mice, six days after MTII was injected) [%] | weight of gonadal white adipose tissues decreased (GPR45^PB1/PB1 mice; [1]) [%] | weight of interscapular brown adipose tissues decreased (GPR45^PB1/PB1 mice; [1]) [%] | weight of retroperitoneal white adipose tissues decreased (GPR45^PB1/PB1 mice; [1]) [%] | weight of gonadal white adipose tissues decreased (wild type mice; [2]) [%] | weight of interscapular brown adipose tissues increased (wild type mice; [2]) [%] | weight of retroperitoneal white adipose tissues decreased (wild type mice; [2]) [%] | body weight decreased relative to the body weight before injection (wild type mice; wild type mice, six days after MTII was injected) [%]
GPR45-siRNA: siRNA, sense 5′-CCGACAUCAUGCUGUCUUUAUTT-3′ (SEQ ID NO. 29), antisense 5′-AUAAAGACAGCAUGAUGUCGGTT-3′ (SEQ ID NO. 30) (chemistry not given here) | 53.4 | 30.7 |  |  |  |  |  |  |  |  |  |  |  |  | 
melanotan-2 [MTII] |  |  | reduced to the level of the body weight of the wild type mice | fat content decreases | body weight decreases | could be suppressed | obesity is suppressed; also recorded: effectively reverses the obesity | 13.6 | 48.5 | 50.4 | 66.7 | 44.1 | 0.4 | 50.9 | 1.8
